Here are results for nine molecules from US20230357193A1, “COMPOUND CAPABLE OF INHIBITING AND DEGRADING ANDROGEN RECEPTORS, AND PHARMACEUTICAL COMPOSITIONS AND PHARMACEUTICAL USES THEREOF” (Sichuan Haisco Pharmaceutical Co., Ltd., priority 2020, published 2023).

Read-outs that look alike come from different tables or passages of the source.

Data set [1] relates to Prostate cancer cells VCaP. Nature of the data set: Experiment on inhibiting VCaP cell proliferation (CellTiter-Glo, with 0.1 nM R1881). In kind it is cell-based. Conditions: Homo sapiens, 168 h, read-out: GI50 for inhibition of VCaP cells. The protocol: Prostate cancer cells VCaP were purchased from ATCC, the cell medium was 1640 + 10% FBS, and the cells were cultured in an incubator at 37° C. under 5% CO2. On day 1, the cells in an exponential phase were collected. With a 1% css-FBS phenol red-free medium, the cell suspension was adjusted to a corresponding concentration, plated into T0 wells at 7500 cells/well and incubated for 3 days. After the incubation was completed, R1881 at a final concentration of 0.1 nM and compounds at different concentrations were added, and the plate was placed in the incubator and incubated for another 7 days. On the day of the addition, T0 plate was detected using a CellTiter-Glo kit and recorded as RLU0. After the incubation was completed, 100 µL of mediums was pipetted from each well. According to operation instructions for a CellTiter-Glo kit (Promega, G7573), 50 µL of CellTiter-Glo reagents, which were already pre-melted and equilibrated to room temperature, were then added to each well, and the mixtures were uniformly mixed for 2 min using a microplate shaker. The plate was placed at room temperature for 10 min, and then […] signal values were measured using a microplate reader (PHERAstar FSX). The results were processed according to formula (1), the inhibition rate of the compound at different concentrations was calculated, and the GI50 value of the compound with an inhibition rate of 50% was calculated using origin9.2 software, wherein RLU compound was the readout of the treated group, and RLUcontrol was the average value of the solvent control group.
In general terms: Cellular ATP, detected with luciferase, serves as a proxy for viable cell number.

The nature of data set [2]: Pharmacokinetic experiment in rats. Type of data set: in vivo. Conditions: male SD rats, i.g. 20 mg/kg. On the procedure:
Objective: in this experiment, a single dose of each test compound was administered to SD rats intravenously and intragastrically, the concentrations of the test compound in plasma of rats were measured, and the pharmacokinetic characteristics and bioavailability of the test compound in rats were evaluated.
Experimental animals: male SD rats, 200-250 g, 6-8 weeks old, 6 rats/compound, purchased from CHENGDU DOSSY EXPERIMENTAL ANIMALS CO., LTD.
Experimental method: on the day of the experiment, six SD rats were randomly grouped according to their body weights. The animals were fasted but with water available for 12 to 14 hours one day before the administration, and were fed 4 h after the administration.
Sampling: before and after the administration, 0.1 mL of blood was taken from the orbit of the rats under isoflurane anesthesia and placed in an EDTAK2 centrifuge tube. Centrifugation was carried out at 5000 rpm at 4° C. for 10 min, and the plasma was collected.
Time points for plasma collection in G1 and G2 groups: 0, 5 min, 15 min, 30 min, 1 h, 2 h, 4 h, 6 h, 8 h, and 24 h.
Before analysis and detection, all samples were stored at -80° C. The samples were analyzed quantitatively by LC-MS/MS.

Data set [3] has as its system Prostate cancer cells 22RV1. Nature of the data set: Experiment on inhibiting 22RV1 cell proliferation (CellTiter-Glo). In kind it is cell-based. Conditions: Homo sapiens, 168 h, 22RV1 cells, 7 days incubation, read-out: IC50 for inhibition of 22RV1 cells. The protocol:
Prostate cancer cells 22RV1 were purchased from ATCC, the cell medium was RPMI 1640 + 10% FBS, and the cells were cultured in an incubator at 37° C. under 5% CO2. On day 1, the cells in an exponential phase were collected. With a 1% css-FBS phenol red-free medium, the cell suspension was adjusted to a corresponding concentration, plated at 2000 cells/well and incubated overnight. On day 2, compounds at different concentrations were added, and the plate was placed in the incubator and incubated for another 7 days. After the incubation was completed, according to operation instructions for a CellTiter-Glo kit (Promega, G7573), 50 µL of CellTiter-Glo reagents, which were already pre-melted and equilibrated to room temperature, were added to each well, and the mixtures were uniformly mixed for 2 min using a microplate shaker. The plate was placed at room temperature for 10 min, and then […] signal values were measured using a microplate reader (PHERAstar FSX). The results were processed according to formula (2), the inhibition rate of the compound at different concentrations was calculated, and the IC50 value of the compound with an inhibition rate of 50% was calculated using origin9.2 software with DoseResp function, wherein RLUcompound was the readout of the treated group, and RLUcontrol was the average value of the DMSO solvent control group.

[4] abbreviates: VCaP cells, 0.1 nM R1881, 7 days incubation, CellTiter-Glo.

For `N#Cc1ccc(NC(=O)C2(n3cc(C4CCN(CC5CCN(c6ccc7c(c6)C(=O)N(C6CCC(=O)NC6=O)C7=O)C5)CC4)cn3)CCC2)cc1C(F)(F)F` (stereo not shown) [Compound 4], in data set [1] (setting [4]), the 50% growth inhibitory concentration (GI50) turned out to be 1810 nM.

Consider `CC(C)(C(=O)Nc1ccc(C#N)c(C(F)(F)F)c1)n1cc(C#CC2CN(c3ccc4c(c3)C(=O)N(C3CCC(=O)NC3=O)C4=O)C2)cn1` (stereo not shown) [Compound 9, N-(4-cyano-3-(trifluoromethyl)phenyl)-2-(4-((1-(2-(2,6-dioxopiperidin-3-yl)-1,3-dioxoisoindolin-5-yl)azetidin-3-yl)ethynyl)-1H-pyrazol-1-yl)-2-methylpropanamide], for which, in data set [1] (VCaP), the 50% growth inhibitory concentration (GI50) stood at 180 nM. For the same molecule, in data set [2], the Oral bioavailability result is “Yes”. In addition, in data set [2] (rat, po, plasma), the area under the curve AUC(0-t) stood at 45600 ± 3720 ng·h/mL and the half-life is 24 ± 10 h. Further, the IC50 in data set [3] turned out to be 78 nM.

Turning to `CC(C)(C(=O)Nc1ccc(C#N)c(C(F)(F)F)c1)n1cc(C2CCN(c3ccc4c(c3)C(=O)N(C3CCC(=O)NC3=O)C4=O)CC2)cn1` (stereo not shown) [Compound 5, N-(4-cyano-3-(trifluoromethyl)phenyl)-2-(4-(1-(2-(2,6-dioxopiperidin-3-yl)-1,3-dioxoisoindolin-5-yl)piperidin-4-yl)-1H-pyrazol-1-yl)-2-methylpropanamide], the GI50 in data set [1] (setting [4]) came to 1910 nM.

`N#Cc1ccc(NC(=O)C2(n3cc(C#CC4CN(c5ccc6c(c5)C(=O)N(C5CCC(=O)NC5=O)C6=O)C4)cn3)CCC2)cc1C(F)(F)F` (stereo not shown) [Compound 7, N-[4-cyano-3-(trifluoromethyl)phenyl]-1-[4-[2-[1-[2-(2,6-dioxo-3-piperidyl)-1,3-dioxo-isoindolin-5-yl]azetidin-3-yl]ethynyl]pyrazol-1-yl]cyclobutanecarboxamide]: the 50% growth inhibitory concentration (GI50) in data set [1] (setting [4]) turned out to be 470 nM.

On to `CC(C)(C(=O)Nc1ccc(C#N)c(C(F)(F)F)c1)n1cc(C#CC2CN(C3CN(c4ccc5c(c4)C(=O)N(C4CCC(=O)NC4=O)C5=O)C3)C2)cn1` (stereo not shown) [Compound 8, N-(4-cyano-3-(trifluoromethyl)phenyl)-2-(4-((1′-(2-(2,6-dioxopiperidin-3-yl)-1,3-dioxoisoindolin-5-yl)-[1,3′-biazetidin]-3-yl)ethynyl)-1H-pyrazol-1-yl)-2-methylpropanamide], for which the GI50 in data set [1] (setting [4]) turned out to be 3960 nM.

For `N#Cc1ccc(NC(=O)C2(n3cc(C#CC4CN(C5CN(c6ccc7c(c6)C(=O)N(C6CCC(=O)NC6=O)C7=O)C5)C4)cn3)CCC2)cc1C(F)(F)F` (stereo not shown) [Compound 6, N-[4-cyano-3-(trifluoromethyl)phenyl]-1-[4-[2-[1-[1-[2-(2,6-dioxo-3-piperidyl)-1,3-dioxo-isoindolin-5-yl]azetidin-3-yl]azetidin-3-yl]ethynyl]pyrazol-1-yl]cyclobutanecarboxamide], the GI50 in data set [1] (setting [4]) was 1690 nM.

Consider `CC(C)(C(=O)Nc1ccc(C#N)c(C(F)(F)F)c1)n1cc(C2CCN(C3CCC4(CC3)CN(c3ccc5c(c3)C(=O)N(C3CCC(=O)NC3=O)C5=O)C4)CC2)cn1` (stereo not shown) [Compound 3, N-(4-cyano-3-(trifluoromethyl)phenyl)-2-(4-(1-(2-(2-(2,6-dioxopiperidin-3-yl)-1,3-dioxoisoindolin-5-yl)-2-azaspiro[3.5]nonan-7-yl)piperidin-4-yl)-1H-pyrazol-1-yl)-2-methylpropanamide], for which the GI50 in data set [1] (setting [4]) turned out to be 3090 nM.

For the molecule `CC(C)(C(=O)Nc1ccc(C#N)c(C(F)(F)F)c1)n1cc(C2CCN(CC3CCN(c4ccc5c(c4)C(=O)N(C4CCC(=O)NC4=O)C5=O)C3)CC2)cn1` (stereo not shown) [Compound 2, N-(4-cyano-3-(trifluoromethyl)phenyl)-2-(4-(1-((1-(2-(2,6-dioxopiperidin-3-yl)-1,3-dioxoisoindolin-5-yl)pyrrolidin-3-yl)methyl)piperidin-4-yl)-1H-pyrazol-1-yl)-2-methylpropanamide], the GI50 in data set [1] (setting [4]) worked out at 4790 nM.

Turning to `CC(C)(C(=O)Nc1ccc(C#N)c(C(F)(F)F)c1)n1cc(C#CC2CCN(c3ccc4c(c3)C(=O)N(C3CCC(=O)NC3=O)C4=O)CC2)cn1` (stereo not shown) [Compound 10, N-(4-cyano-3-(trifluoromethyl)phenyl)-2-(4-((1-(2-(2,6-dioxopiperidin-3-yl)-1,3-dioxoisoindolin-5-yl)piperidin-4-yl)ethynyl)-1H-pyrazol-1-yl)-2-methylpropanamide], the 50% growth inhibitory concentration (GI50) in data set [1] (setting [4]) was determined as 330 nM.

Usually GI50 stands for the concentration that inhibits growth by half. As usually defined, the AUC(0-t) is exposure summed from dosing to a finite time, without extrapolation to infinity. A low value points to less exposure. As a reminder, the half-life is the time needed for the level to fall by half in the phase considered. Read a high half-life as slow decline. As a reminder, the IC50 is the concentration that gives 50% inhibition.
